Assays:
Assay type in all cases: functional
Conditions in all cases: read-out: IZ
[1] = system: Pseudomonas aeruginosa; experiment: Antibacterial activity against Pseudomonas aeruginosa ATCC 9027 at 200 ug/ml by cup-plate method
[2] = system: Escherichia coli; experiment: Antibacterial activity against Escherichia coli ATCC 25922 at 200 ug/ml by cup-plate method
[3] = system: Staphylococcus aureus; experiment: Antibacterial activity against Staphylococcus aureus ATCC 9144 at 200 ug/ml by cup-plate method
[4] = system: Escherichia coli; experiment: Antibacterial activity against Escherichia coli ATCC 25922 at 100 ug/ml by cup-plate method
[5] = system: Staphylococcus aureus; experiment: Antibacterial activity against Staphylococcus aureus ATCC 9144 at 100 ug/ml by cup-plate method
[6] = system: Candida albicans; experiment: Antifungal activity against Candida albicans ATCC 10231 at 100 ug/ml by cup-plate method
[7] = system: Bacillus subtilis; experiment: Antibacterial activity against Bacillus subtilis ATCC 6633 at 100 ug/ml by cup-plate method
[8] = system: Pseudomonas aeruginosa; experiment: Antibacterial activity against Pseudomonas aeruginosa ATCC 9027 at 100 ug/ml by cup-plate method
[9] = system: Candida albicans; experiment: Antifungal activity against Candida albicans ATCC 10231 at 200 ug/ml by cup-plate method
[10] = system: Bacillus subtilis; experiment: Antibacterial activity against Bacillus subtilis ATCC 6633 at 200 ug/ml by cup-plate method

SMILES | zone of inhibition at 200 µg/mL [1] [mm] | zone of inhibition at 200 µg/mL [2] [mm] | zone of inhibition at 200 µg/mL [3] [mm] | zone of inhibition at 100 µg/mL [4] [mm] | zone of inhibition at 100 µg/mL [5] [mm] | zone of inhibition at 100 µg/mL [6] [mm] | zone of inhibition at 100 µg/mL [7] [mm] | zone of inhibition at 100 µg/mL [8] [mm] | zone of inhibition at 200 µg/mL [9] [mm] | zone of inhibition at 200 µg/mL [10] [mm]
O=C(c1cccnc1Nc1nc2c(Cl)cccc2s1)N1CCN(CCO)CC1 | 9 | 9 | 7 | 6 | 7 | 3 | 7 | 7 | 6 | 8
O=C(c1cccnc1Nc1nc2ccc([N+](=O)[O-])cc2s1)N1CCNC(Cl)C1Cl (stereo not given) | 8 | 6 | 8 | 6 | 8 | 0 | 7 | 6 | 3 | 7
C[C@@H]1[C@H](O)[C@@H](C)/C=C/C=C/C=C/C=C/C=C/C=C/C=C/[C@H](O[C@@H]2O[C@H](C)[C@@H](O)[C@H](N)[C@@H]2O)C[C@@H]2O[C@](O)(C[C@@H](O)C[C@@H](O)[C@H](O)CC[C@@H](O)C[C@@H](O)CC(=O)O[C@H]1C)C[C@H](O)[C@H]2C(=O)O [AMPHOTERICIN B] | – | – | – | – | – | 8 | – | – | 18 | –
O=C(c1cccnc1Nc1nc2ccc(Cl)cc2s1)N1CCN(CCO)CC1 | 10 | 10 | 9 | 6 | 8 | 0 | 7 | 7 | 1 | 9
CC1(C)S[C@@H]2[C@H](NC(=O)[C@H](N)c3ccccc3)C(=O)N2[C@H]1C(=O)O [AMPICILLIN] | 31 | 30 | 28 | 18 | 15 | – | 17 | 18 | – | 30
O=C(c1cccnc1Nc1nc2ccc(Cl)cc2s1)N1CCNC(Cl)C1Cl (stereo not given) | 8 | 9 | 10 | 7 | 7 | 0 | 5 | 8 | 1 | 6
COc1ccc2nc(Nc3ncccc3C(=O)N3CCN(CCO)CC3)sc2c1 | 5 | 8 | 9 | 8 | 8 | 0 | 0 | 4 | 5 | 4
COc1ccc2nc(Nc3ncccc3C(=O)N3CCNC(Cl)C3Cl)sc2c1 (stereo not given) | 7 | 9 | 6 | 8 | 5 | 4 | – | 4 | 6 | 2
COc1cccc2sc(Nc3ncccc3C(=O)N3CCNC(Cl)C3Cl)nc12 (stereo not given) | 8 | 4 | 6 | 0 | 6 | 3 | 8 | 7 | 4 | 9
COc1cccc2sc(Nc3ncccc3C(=O)N3CCN(CCO)CC3)nc12 | 9 | 3 | 8 | 3 | 6 | 4 | 6 | 7 | 4 | 10
O=C(c1cccnc1Nc1nc2cc(Cl)ccc2s1)N1CCN(CCO)CC1 | 3 | 5 | 0 | 5 | 0 | 3 | 5 | 0 | 4 | 5
O=C(c1cccnc1Nc1nc2ccccc2s1)N1CCNC(Cl)C1Cl (stereo not given) | 5 | 8 | 7 | 7 | 5 | 3 | 6 | 4 | 5 | 7
Cc1ccc2sc(Nc3ncccc3C(=O)N3CCNC(Cl)C3Cl)nc2c1 (stereo not given) | 8 | 7 | 10 | 5 | 8 | 2 | 7 | 6 | 3 | 7
Cc1cccc2sc(Nc3ncccc3C(=O)N3CCNC(Cl)C3Cl)nc12 (stereo not given) | 7 | 10 | 6 | 8 | 4 | 0 | 4 | 6 | 0 | 4
Cc1ccc2sc(Nc3ncccc3C(=O)N3CCN(CCO)CC3)nc2c1 | 6 | 10 | 10 | 6 | 8 | 1 | 8 | 5 | 2 | 8
O=C(c1cccnc1Nc1nc2ccccc2s1)N1CCN(CCO)CC1 | 9 | 8 | 7 | 7 | 6 | 3 | 6 | 8 | 5 | 10
O=C(c1cccnc1Nc1nc2c([N+](=O)[O-])cccc2s1)N1CCNC(Cl)C1Cl (stereo not given) | 9 | 10 | 10 | 9 | 8 | 2 | 5 | 8 | 4 | 10
O=C(c1cccnc1Nc1nc2cc(Cl)ccc2s1)N1CCNC(Cl)C1Cl (stereo not given) | 2 | 3 | 0 | 2 | 0 | 1 | 5 | 0 | 2 | 5
CC1(C)S[C@@H]2[C@H](NC(=O)[C@H](N)c3ccc(O)cc3)C(=O)N2[C@H]1C(=O)O [AMOXICILLIN] | 27 | 28 | 24 | 16 | 13 | – | 16 | 15 | – | 29
O=C(c1cccnc1Nc1nc2c(Cl)cccc2s1)N1CCNC(Cl)C1Cl (stereo not given) | 3 | 5 | 4 | 4 | 3 | 3 | 3 | 3 | 6 | 6
O=C(c1cccnc1Nc1nc2cc([N+](=O)[O-])ccc2s1)N1CCNC(Cl)C1Cl (stereo not given) | 6 | 5 | 9 | 4 | 6 | 1 | 8 | 5 | 4 | 7
CC1(C)S[C@@H]2[C@H](NC(=O)Cc3ccccc3)C(=O)N2[C@H]1C(=O)O [PENICILLIN G] | 22 | 25 | 21 | 14 | 12 | – | 14 | 13 | – | 25

Source: ChEMBL document CHEMBL3046819, “Synthesis and antimicrobial activity of new pyridine derivatives-I” (2011)
